In PMC8851771, “Molecular action of larvicidal flavonoids on ecdysteroidogenic glutathione S-transferase Noppera-bo in Aedes aegypti” (BMC Biology, 2022):

biological target: AeNobo-F39L (Aedes aegypti, UniProt A0A1S4FIB3, F90L); assay: GST activity inhibition assay with 3,4-DNADCF, AeNobo-F39L; format: biochemical; details: not given
Protocol: (§1) pCold III plasmids expressing the AeNobo-E113A and AeNobo-F39L were constructed using KOD-Plus-Mutagenesis Kit (Toyobo). The following primers were used: E113A-F (5′-[…]-3′) and E113A-R (5′-[…]-3′) for AeNobo-E113A and F39L-F (5′-[…]-3′) and F39L-R (5′-[…]-3′) for AeNobo-F39L. We conducted inverse PCR using KOD-plus polymerase, pColdIII/AeNobo-WT plasmid, and the primer pair described above under the following conditions: pre-denaturation at 94 °C for 2 min, denaturation at 98 °C for 10 s, and extension at 68 °C for 6 min for 6 cycles. The PCR products were treated with DpnI at 37 °C for 1 h, followed by self-ligation using T4 polynucleotide kinase and Ligation High. After the transformation of DH5α bacteria using the ligation products, we extracted plasmid DNA from the colonies and verified their sequences to confirm whether the appropriate point mutations were introduced.
The IC50 value was measured using an in vitro assay system as described previously. A dilution series of compounds, ranging from 2.5 mM to 0.127 μM for DMG and from 2.5 mM to 4.9 μM for other compounds, was prepared by 2-fold serial dilution in DMSO. […] The fluorescence intensity derived from 4-GS-3-NADCF, a product of this reaction, was measured for 3 min. […]

Chain of AeNobo-F39L (A0A1S4FIB3 entry or part of it F90L): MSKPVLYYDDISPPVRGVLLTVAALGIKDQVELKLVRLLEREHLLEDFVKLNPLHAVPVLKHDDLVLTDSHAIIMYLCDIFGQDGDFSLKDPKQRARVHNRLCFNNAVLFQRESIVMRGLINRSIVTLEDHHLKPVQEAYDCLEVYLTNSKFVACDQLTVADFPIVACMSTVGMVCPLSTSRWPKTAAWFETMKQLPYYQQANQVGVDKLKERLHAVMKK

Compound | IC50 [µM]
O=c1cc(-c2ccc(O)c(O)c2)oc2cc(O)cc(O)c12 [Luteolin] | 1.58

biological target: AeNobo-E113A (Aedes aegypti, UniProt A0A1S4FIB3, E164K); assay: GST activity inhibition assay with 3,4-DNADCF, AeNobo-E113A; format: biochemical; details: not given
Source text: The importance of the Glu-113–flavonoid hydrogen bond for flavonoid binding was biochemically examined with a recombinant mutated AeNobo protein carrying an E113A aa substitution (AeNobo-E113A).
as §1
(§2) The IC50 value was measured using an in vitro assay system as described previously. A dilution series of compounds, ranging from 2.5 mM to 0.127 μM for DMG and from 2.5 mM to 4.9 μM for other compounds, was prepared by 2-fold serial dilution in DMSO. Five microliters of each diluted compound solution was mixed with 245 μL of solution A (100 mM sodium phosphate buffer at pH 6.5, 0.01% Tween 20, 2 mM GSH, and 50 ng/mL AeNobo-WT, 100 ng/mL AeNobo-E113A, and 200 ng/mL F39L). One hundred microliters of the mixture was dispensed into wells of a 96-well plate. One hundred microliters of solution B (0.2 μM 3,4-DNADCF and 100 mM sodium phosphate buffer at pH 6.5) was added to each well. In summary, the final reaction system comprised 100 mM sodium phosphate buffer (pH 6.5), 1 mM GSH, 0.005% Tween 20, 0.1 μM 3,4-DNACDF, and 25 ng/mL AeNobo, 50 ng/mL AeNobo-E113A, or 100 ng/mL AeNobo-F39L protein. The fluorescence intensity derived from 4-GS-3-NADCF, a product of this reaction, was measured for 3 min. IC50 values were estimated as described previously. The enzymatic assays under each condition were performed at least twice independently.

Chain of AeNobo-E113A (A0A1S4FIB3 entry or part of it E164K): as the sequence (A0A1S4FIB3 entry or part of it F90L) above, with L39F, E113K counted along it

Compound | IC50 [µM]
O=c1c(O)c(-c2ccc(O)cc2)oc2cc(O)cc(O)c12 [Kaempferol] | > 25
O=c1c(-c2ccc(O)cc2)coc2cc(O)ccc12 [Daidzein] | > 25
O=c1c(O)c(-c2cc(O)c(O)c(O)c2)oc2cc(O)cc(O)c12 [Myricetin] | > 25
O=C1CC(c2ccccc2O)Oc2ccccc21 (stereo not shown) [2′-Hydroxyflavanone] | > 25
Oc1cc(O)c2cc(O)c(-c3ccc(O)c(O)c3)[o+]c2c1 [Cyanidin chloride] | > 25
O=c1cc(-c2ccc(O)c(O)c2)oc2cc(O)cc(O)c12 [Luteolin] | 35.8 ± 5.73
COc1cc(-c2[o+]c3cc(O)cc(O)c3cc2O)cc(O)c1O [Petunidin] | > 25
O=c1c(O)c(-c2ccc(O)c(O)c2)oc2cc(O)cc(O)c12 [Quercetin] | > 25
O=c1c(O)c(-c2ccc(O)c(O)c2)oc2cc(O)ccc12 [Fisetin] | > 25

same assay, conditions: Table 1; GSH conjugation of 3,4-DNADCF; read-out: IC50 to AeNobo-E113A (μM) (mean ± s.d.)

Compound | IC50 [µM]
COc1ccc(-c2coc3cc(O)cc(O)c3c2=O)cc1 [Biochanin A] | > 25

test system: Ae. aegypti 1st instar larvae; assay: not given; details: cited from earlier work

Compound | Larvicidal activity against Ae. aegypti | Larvicidal activity toward Ae. aegypti
O=c1c(-c2ccc(O)cc2)coc2cc(O)ccc12 [Daidzein] | exhibit larvicidal activity | known to exhibit larvicidal activity
O=c1c(-c2ccc(O)cc2)coc2cc(O)cc(O)c12 [Genistein] | exhibit larvicidal activity | –
O=c1cc(-c2ccc(O)c(O)c2)oc2cc(O)cc(O)c12 [Luteolin] | – | known to exhibit larvicidal activity

biological target: AeNobo-WT (Aedes aegypti, UniProt A0A1S4FIB3); assay: GST activity inhibition assay with 3,4-DNADCF, wild-type AeNobo; format: biochemical; details: not given
Protocol: We prepared a purified AeNobo recombinant protein (220-aa length) using an Escherichia coli protein expression system. The GST enzymatic activity was examined using the fluorogenic artificial substrate 3,4-dinitrobenzamidedichlorofluorescein (3,4-DNADCF).
as §2, with “A dilution series of compounds, ranging from 2.5 mM to 0.127 μM for DMG and from 2.5 mM to 4.9 μM for other compounds, was prepared by 2-fold serial dilution in DMSO.” left out
To identify inhibitors of AeNobo enzymatic activity, a high-throughput screening was performed as described in a previous study. Briefly, a core library of 9600 compounds obtained from the Drug Discovery Initiative, The University of Tokyo, was utilized for screening. In this screen, the enzymatic activity of AeNobo was detected using 3,4-DNADCF [29]. […] Then, 1 μL of solution B (4 μM 3,4-DNADCF, 100 mM sodium phosphate at pH 6.5, and 0.005% Tween 20) was added into each well. In summary, the reaction system comprised 5.6 ng/mL AeNobo protein, 2 μM 3,4-DNADCF, 1 mM GSH, 0.005% Tween 20, and 100 mM sodium phosphate at pH 6.5, together with each compound at 10 μM. The plate was incubated for 30 min at 25–27 °C and 2 μL of 10 mM N-ethylmaleimide was added into each well to stop the reaction. […] For the second screen, we assayed the IC50 values of the compounds against the enzymatic activity of AeNobo.

Chain of AeNobo-WT (A0A1S4FIB3 entry or part of it): as the sequence (A0A1S4FIB3 entry or part of it F90L) above, with L39F counted along it

Compound | IC50 [µM]
ClC(Cl)=C(c1ccc(Cl)cc1)c1ccc(Cl)cc1 [1,1-Dichloro-2,2-bis(4-chlorophenyl)ethene] | > 25
O=c1c(-c2ccc(O)cc2)coc2cc(O)ccc12 [Daidzein] | 3.87 ± 0.52
Cn1c(N)nc2ncc(-c3ccccc3)cc21 [2-Amino-1-methyl-6-phenylimidazo[4,5-b]pyridine] | > 25
O=c1cc(-c2ccc(O)c(O)c2)oc2cccc(O)c12 [5,3’,4’-Trihydroxyflavone, 5,3′,4′-trihydroxyflavone] | 1.64 ± 0.1
O=c1c(O)c(-c2cc(O)c(O)c(O)c2)oc2cc(O)cc(O)c12 [Myricetin] | 2.91 ± 0.27
O=c1c(-c2ccccc2)coc2cc(O)ccc12 [7-Hydroxyisoflavone] | 5.61 ± 0.3
C[C@H]1CCCC(=O)CCC/C=C/c2cc(O)cc(O)c2C(=O)O1 [Zearalenone] | > 25
O=c1c(O)c(-c2ccc(O)c(O)c2)oc2cc(O)cc(O)c12 [Quercetin] | 0.963 ± 0.094
Oc1ccc(C(c2ccc(O)cc2)C(Cl)(Cl)Cl)cc1 [4-[2,2,2-trichloro-1-(4-hydroxyphenyl)ethyl]phenol] | > 25
CC(C)(c1ccc(O)cc1)c1ccc(O)cc1 [Biosphenol A, 4,4'-propane-2,2-diyldiphenol] | > 25

same assay, conditions: 3,4-DNADCF

Inhibition of enzymatic activity of AeNobo (in words) | Compound
retained inhibitory activity | O=c1cc(-c2ccc(O)c(O)c2)oc2cccc(O)c12 [5,3’,4’-Trihydroxyflavone, 5,3′,4′-trihydroxyflavone]
retained inhibitory activity | O=c1c(-c2ccccc2)coc2cc(O)ccc12 [7-Hydroxyisoflavone]
did not inhibit | O=c1c(-c2ccc(O)cc2)coc2ccccc12 [3-(4-Hydroxyphenyl)-4H-chromen-4-one]
retained inhibitory activity | O=c1cc(-c2ccc(O)c(O)c2)oc2cc(O)ccc12 [7,3’,4’-Trihydroxyflavone, 7,3′,4′-trihydroxyflavone]

Compound | Inhibition of enzymatic activity of AeNobo (in words)
O=c1cc(-c2ccccc2)oc2cc(O)cc(O)c12 [Chrysin] | did not exhibit any inhibitory activity

same assay, conditions: Table 1; GSH conjugation of 3,4-DNADCF; read-out: IC50 to AeNobo-WT (μM) (mean ± s.d.)

Compound | IC50 [µM]
COc1ccc(-c2coc3cc(O)cc(O)c3c2=O)cc1 [Biochanin A] | 1.84 ± 0.06
O=c1c(O)c(-c2ccc(O)cc2)oc2cc(O)cc(O)c12 [Kaempferol] | 4.91 ± 1.69
O=C1CC(c2ccccc2O)Oc2ccccc21 (stereo not shown) [2′-Hydroxyflavanone] | 4.76 ± 0.37
Oc1cc(O)c2cc(O)c(-c3ccc(O)c(O)c3)[o+]c2c1 [Cyanidin chloride] | 2.15 ± 0.24
COc1cc(-c2[o+]c3cc(O)cc(O)c3cc2O)cc(O)c1O [Petunidin] | 14.9 ± 2.01
COc1ccc(-c2oc3cc(O)cc(O)c3c(=O)c2O)cc1O [Tamarixetin] | > 25
O=C1C[C@@H](c2ccc(O)cc2)Oc2cc(O)cc(O)c21 [Naringenin] | > 25
Oc1ccc([C@H]2COc3cc(O)ccc3C2)cc1 [S-equol] | > 25
(+)-catechin hydrate [(+) Catechin hydrate] | > 25
O=c1c(O)c(-c2ccc(O)c(O)c2)oc2cc(O)ccc12 [Fisetin] | 1.69 ± 0.04

same assay, conditions: Table S2, estrogenic compounds against AeNobo; read-out: IC50 (μM) (mean ± s.d.)

Compound | IC50 [µM]
CCCOC(=O)c1ccc(O)cc1 [propyl 4-hydroxybenzoate] | > 25
C[C@H]1CCC[C@H](O)CCCCCc2cc(O)cc(O)c2C(=O)O1 [α-zearalanol] | > 25
Oc1ccc(/C=C/c2cc(O)cc(O)c2)cc1 [Resveratrol] | > 25
CC1=CC(C)[C@@]2(CO)COC(c3ccc(O)cc3)[C@@H]1C2C (stereo partly drawn) [4-[(1R,5R)-5-(hydroxymethyl)-6,8,9-trimethyl-3-oxabicyclo[3.3.1]non-7-en-2-yl]phenol] | > 25
C[C@]12CC[C@@H]3c4ccc(O)cc4CC[C@H]3[C@@H]1C/C(=C\c1ccccc1)C2=O [16-benzylidene estrone] | > 25
CCCCOC(=O)c1ccccc1C(=O)OCc1ccccc1 [1-benzyl 2-butyl benzene-1,2-dicarboxylate] | > 25
CC1=CC[C@@H]2C[C@H]1C(c1ccc(O)cc1)OC2(C)C (stereo partly drawn) [4-[(1R,5R)-4,4,8-trimethyl-3-oxabicyclo[3.3.1]non-7-en-2-yl]phenol] | > 25
O=C(c1ccc(O)cc1O)c1ccc(O)cc1O [bis(2,4-dihydroxyphenyl)methanone] | > 25
CC(C)(C)CC(C)(C)c1ccc(O)cc1 [4-(2,4,4-trimethylpentan-2-yl)phenol] | > 25
CCCCOC(=O)c1ccc(O)cc1 [butyl 4-hydroxybenzoate] | > 25
Cc1cc(-c2ccc3c(c2)CC[C@]3(C)O)cc(C)c1O [(S)-5-(4-hydroxy-3,5-dimethylphenyl)-1-methyl-2,3-dihydro-1H-inden-1-ol] | > 25

same assay, conditions: Table S5, luteolin derivatives against AeNobo; read-out: IC50 (μM) (mean ± s.d.)

Compound | IC50 [µM]
O=c1cc(-c2ccc(O)cc2)oc2cc(O)cc(O)c12 [Apigenin] | > 25
O=c1cc(-c2ccccc2)oc2cc(O)cc(O)c12 [Chrysin] | > 25

same assay, conditions: read-out: IC50 (μM) (mean ± s.d.)

IC50 [µM] | Compound
1.86 ± 0.41 | O=c1c(-c2ccc(O)cc2)coc2cc(O)cc(O)c12 [Genistein]
> 25 | O=c1c(-c2ccc(O)cc2)coc2ccccc12 [3-(4-Hydroxyphenyl)-4H-chromen-4-one]
10.3 ± 0.47 | O=c1cc(-c2ccc(O)c(O)c2)oc2cc(O)ccc12 [7,3’,4’-Trihydroxyflavone, 7,3′,4′-trihydroxyflavone]

same assay, conditions: text and figures; 3,4-DNADCF; read-out: IC50 against AeNobo (WT)

Compound | IC50 [µM]
O=c1cc(-c2ccc(O)cc2)oc2cc(O)cc(O)c12 [Apigenin] | > 25

biological target: Aedes aegypti Noppera-bo (AeNobo), wild type, 220-aa protein (Aedes aegypti); assay: SEC; gel filtration of purified AeNobo on HiLoad Superdex200 26/60; 150 mM NaCl, 25 mM Tris-HCl pH 8.0, 5 mM DTT; 1 mL/min; compared with marker proteins; details: not given

stoichiometry N | Compound
2 | Aedes aegypti Noppera-bo (AeNobo), wild type, 220-aa protein (enzyme)
